Source: US20230265116A1, “DEGRADATION OF (EGFR) BY CONJUGATION OF EGFR INHIBITORS WITH E3 LIGASE LIGAND AND METHODS OF USE” (BEIGENE, LTD., priority 2020, published 2023)

Assays:
[1] = test system: EGFR Del19/T790M/C797S (H1975-clone #28); assay: EGFR degradation HTRF assay, H1975-clone #28 DTC cells; type: cell-based; conditions: H1975 # 28 DTC cells; for DC50: EGFR degradation, IC50 (DC50) from curve fit, read-out: DC50(nM) H1975 # 28 DTC; for Dmax (%) H1975 # 28 DTC: maximum percentage of inhibition (degradation)
Procedure, shortened: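 Read-out is an HTRF EGFR signal (337 nm excitation, 665/620 nm) from lysates of mutant-EGFR H1975 clones in which only the exogenous EGFR survives knockout. Treatment ran 16h at 37° C. from 10 uM final downward in 5-fold steps. DC50 comes from a logistic fit and Dmax is the maximal degradation.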

[2] = molecular target: T1, EGFR L858R/T790M/C797S (BaF3-LTC cells) (Homo sapiens, UniProt P00533, C797S/L858R/T790M); assay: EGFR degradation HTRF assay, BaF3-LTC cells; type: cell-based; conditions: BaF3-LTC cells; for DC50: EGFR degradation, IC50 (DC50) from curve fit, read-out: DC50(nM) BaF3-LTC; for Dmax: maximum percentage of inhibition (degradation), read-out: Dmax (%) BaF3-LTC
T1 construct: expressed in transfected cells; host or cells: BaF3
Procedure, shortened: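 Cells treated 16 h at 37 °C, 5% CO2 in medium with 0.2% DMSO; top final concentration 10 uM, 5-fold dilution, 8 doses. Lysates read by HTRF (665/620 nm); degradation % versus DMSO high control, DC50 from four-parameter fit, Dmax as maximal degradation.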

T1 sequence (P00533 25-1210 T790M/C797S/L858R): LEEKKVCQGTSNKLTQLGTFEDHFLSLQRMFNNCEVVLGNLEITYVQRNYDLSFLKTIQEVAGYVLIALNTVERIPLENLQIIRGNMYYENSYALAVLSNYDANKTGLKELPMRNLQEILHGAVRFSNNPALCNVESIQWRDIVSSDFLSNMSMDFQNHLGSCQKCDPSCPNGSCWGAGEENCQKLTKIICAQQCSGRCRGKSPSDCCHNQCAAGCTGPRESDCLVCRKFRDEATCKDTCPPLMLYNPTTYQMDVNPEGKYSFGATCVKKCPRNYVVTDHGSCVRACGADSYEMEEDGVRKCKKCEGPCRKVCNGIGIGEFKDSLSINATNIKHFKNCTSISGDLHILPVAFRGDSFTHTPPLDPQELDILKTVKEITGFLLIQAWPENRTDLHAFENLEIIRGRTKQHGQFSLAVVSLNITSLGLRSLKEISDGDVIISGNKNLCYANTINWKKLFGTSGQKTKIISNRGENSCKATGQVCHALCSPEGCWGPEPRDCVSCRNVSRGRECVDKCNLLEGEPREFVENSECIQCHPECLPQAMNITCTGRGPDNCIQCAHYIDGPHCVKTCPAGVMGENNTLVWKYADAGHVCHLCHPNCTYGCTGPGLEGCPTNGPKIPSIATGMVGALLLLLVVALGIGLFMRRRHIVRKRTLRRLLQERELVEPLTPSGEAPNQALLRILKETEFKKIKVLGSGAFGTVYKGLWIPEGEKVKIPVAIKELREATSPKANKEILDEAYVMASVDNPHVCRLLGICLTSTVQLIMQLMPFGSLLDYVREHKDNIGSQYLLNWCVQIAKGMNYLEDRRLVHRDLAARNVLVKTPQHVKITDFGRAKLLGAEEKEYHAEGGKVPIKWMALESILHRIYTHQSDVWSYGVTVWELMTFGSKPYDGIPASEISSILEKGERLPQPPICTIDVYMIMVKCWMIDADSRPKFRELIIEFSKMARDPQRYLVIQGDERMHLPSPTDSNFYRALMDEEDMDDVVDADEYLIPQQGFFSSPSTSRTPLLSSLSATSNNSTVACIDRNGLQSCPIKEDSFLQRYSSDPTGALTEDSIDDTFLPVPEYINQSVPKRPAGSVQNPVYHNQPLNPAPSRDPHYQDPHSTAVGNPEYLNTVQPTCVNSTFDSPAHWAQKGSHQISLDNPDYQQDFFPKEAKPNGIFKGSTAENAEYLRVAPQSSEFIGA

Row | SMILES | DC50 [1] [nM] | DC50 [2] [nM] | Dmax [2] [%] | Dmax (%) H1975 # 28 DTC [1]
1 | CCOc1cc(N2CCC(N3CCN(CCc4ccc5c(c4)oc(=O)n5C4CCC(=O)NC4=O)CC3)CC2)c(CC)cc1Nc1ncc(Br)c(Nc2ccc3nc(C)c(F)cc3c2P(C)(C)=O)n1 (centres unmarked) [Example 651, 3-(6-(2-(4-(1-(4-((5-bromo-4-((5-(dimethylphosphoryl)-3-fluoro-2-methylquinolin-6-yl)amino)pyrimidin-2-yl)amino)-5-ethoxy-2-ethylphenyl)piperidin-4-yl)piperazin-1-yl)ethyl)-2-oxobenzo[d]oxazol-3(2H)-yl)piperidine-2,6-dione] | 1.17 | 2.13 | 87.7 | 79.33%
2 | CCOc1cc(N2CCC(N3CCN(C(=O)[C@@H]4CCN(c5cc(F)c([C@H]6CCC(=O)NC6=O)c(F)c5)C4)CC3)CC2)c(CC)cc1Nc1ncc(Br)c(Nc2ccc3c(=O)n(C)ncc3c2P(C)(C)=O)n1 [Example 530, (R)-3-(4-((R)-3-(4-(1-(4-((5-bromo-4-((5-(dimethylphosphoryl)-2-methyl-1-oxo-1,2-dihydrophthalazin-6-yl)amino)pyrimidin-2-yl)amino)-5-ethoxy-2-ethylphenyl)piperidin-4-yl)piperazine-1-carbonyl)pyrrolidin-1-yl)-2,6-difluorophenyl)piperidine-2,6-dione] | 1.87 | 5.05 | 94.6 | 82.54%
3 | CCc1cc(Nc2ncc(Br)c(Nc3ccc4nc(COC)ccc4c3P(C)(C)=O)n2)c(OC)cc1N1CCC(N2CCN(CCc3cc(F)c(C4CCC(=O)NC4=O)c(F)c3)CC2)CC1 (centres unmarked) [Example 690, 3-(4-(2-(4-(1-(4-((5-bromo-4-((5-(dimethylphosphoryl)-2-(methoxymethyl)quinolin-6-yl)amino)pyrimidin-2-yl)amino)-2-ethyl-5-methoxyphenyl)piperidin-4-yl)piperazin-1-yl)ethyl)-2,6-difluorophenyl)piperidine-2,6-dione] | 0.689 | 6.66 | 90.6 | 77.81%
4 | CCOc1cc(N2CCC(N3CCN(C[C@H]4CCN(c5cccc6c5oc(=O)n6C5CCC(=O)NC5=O)C4)CC3)CC2)c(CC)cc1Nc1ncc(Br)c(Nc2ccc3c(=O)n(CC)ncc3c2P(C)(C)=O)n1 (stereo partly drawn) [Example 560, 3-(7-((R)-3-((4-(1-(4-((5-bromo-4-((5-(dimethylphosphoryl)-2-ethyl-1-oxo-1,2-dihydrophthalazin-6-yl)amino)pyrimidin-2-yl)amino)-5-ethoxy-2-ethylphenyl)piperidin-4-yl)piperazin-1-yl)methyl)pyrrolidin-1-yl)-2-oxobenzo[d]oxazol-3(2H)-yl)piperidine-2,6-dione] | 1.36 | 14.1 | 92.3 | 80.68%
5 | CCOc1cc(N2CCC(N3CCN(C(=O)[C@@H]4CCN(c5cc(F)c([C@H]6CCC(=O)NC6=O)c(F)c5)C4)CC3)CC2)c(C)cc1Nc1ncc(Br)c(Nc2ccc3c(=O)n(C)ncc3c2P(C)(C)=O)n1 [Example 529, (R)-3-(4-((R)-3-(4-(1-(4-((5-bromo-4-((5-(dimethylphosphoryl)-2-methyl-1-oxo-1,2-dihydrophthalazin-6-yl)amino)pyrimidin-2-yl)amino)-5-ethoxy-2-methylphenyl)piperidin-4-yl)piperazine-1-carbonyl)pyrrolidin-1-yl)-2,6-difluorophenyl)piperidine-2,6-dione] | 1.03 | 5.8 | 91.9 | 85.06%

Further lines, with some results ahead:

Row | DC50 [1] [nM] | DC50 [2] [nM] | Dmax [2] [%] | SMILES | Dmax (%) H1975 # 28 DTC [1]
6 | 1.05 | 21.9 | 95.4 | CCOc1cc(N2CCC(N3CCN(CCc4ccc5c(oc(=O)n5C5CCC(=O)NC5=O)c4Cl)CC3)CC2)c(CC)cc1Nc1ncc(Br)c(Nc2ccc3nc(CC)ccc3c2P(C)(C)=O)n1 (centres unmarked) [Example 624, 3-(6-(2-(4-(1-(4-((5-bromo-4-((5-(dimethylphosphoryl)-2-ethylquinolin-6-yl)amino)pyrimidin-2-yl)amino)-5-ethoxy-2-ethylphenyl)piperidin-4-yl)piperazin-1-yl)ethyl)-7-chloro-2-oxobenzo[d]oxazol-3(2H)-yl)piperidine-2,6-dione] | 73.81%
7 | 3.39 | 16 | 75 | CCc1ccc2c(P(C)(C)=O)c(Nc3nc(Nc4cc(CC)c(N5CCC(N6CCN(CC[C@H]7CCN(c8cc(F)c(C9CCC(=O)NC9=O)c(F)c8)C7)CC6)CC5)cc4OC)ncc3Br)ccc2n1 (stereo partly drawn) [Example 650, 3-(4-((S)-3-(2-(4-(1-(4-((5-bromo-4-((5-(dimethylphosphoryl)-2-ethylquinolin-6-yl)amino)pyrimidin-2-yl)amino)-2-ethyl-5-methoxyphenyl)piperidin-4-yl)piperazin-1-yl)ethyl)pyrrolidin-1-yl)-2,6-difluorophenyl)piperidine-2,6-dione] | 59.93%
8 | 0.962 | 6.92 | 89.5 | CCc1ccc2c(P(C)(C)=O)c(Nc3nc(Nc4cc(CC)c(N5CCC(N6CCN(CC7CN(c8cccc9c8oc(=O)n9C8CCC(=O)NC8=O)C7)CC6)CC5)cc4OC)ncc3Br)ccc2n1 (centres unmarked) [Example 448, 3-(7-(3-((4-(1-(4-((5-bromo-4-((5-(dimethylphosphoryl)-2-ethylquinolin-6-yl)amino)pyrimidin-2-yl)amino)-2-ethyl-5-methoxyphenyl)piperidin-4-yl)piperazin-1-yl)methyl)azetidin-1-yl)-2-oxobenzo[d]oxazol-3(2H)-yl)piperidine-2,6-dione] | 83.19%
9 | 0.59 | 4.46 | 84.2 | CCc1ccc2c(P(C)(C)=O)c(Nc3nc(Nc4cc(CC)c(N5CCC(N6CCN(C(=O)Cc7c(C)ccc8c7C(C)(C)C(=O)N8C7CCC(=O)NC7=O)CC6)CC5)cc4OC)ncc3Br)ccc2n1 (centres unmarked) [Example 658, 3-(4-(2-(4-(1-(4-((5-bromo-4-((5-(dimethylphosphoryl)-2-ethylquinolin-6-yl)amino)pyrimidin-2-yl)amino)-2-ethyl-5-methoxyphenyl)piperidin-4-yl)piperazin-1-yl)-2-oxoethyl)-3,3,5-trimethyl-2-oxoindolin-1-yl)piperidine-2,6-dione] | 71.03 7%
10 | 0.735 | 5.13 | 92.3 | CCc1ccc2c(P(C)(C)=O)c(Nc3nc(Nc4cc(CC)c(N5CCC(N6CCN(CCc7cccc8c7n(C7CC7)c(=O)n8C7CCC(=O)NC7=O)CC6)CC5)cc4OC)ncc3Br)ccc2n1 (centres unmarked) [Example 454, 3-(4-(2-(4-(1-(4-((5-bromo-4-((5-(dimethylphosphoryl)-2-ethylquinolin-6-yl)amino)pyrimidin-2-yl)amino)-2-ethyl-5-methoxyphenyl)piperidin-4-yl)piperazin-1-yl)ethyl)-3-cyclopropyl-2-oxo-2,3-dihydro-1H-benzo[d]imidazol-1-yl)piperidine-2,6-dione] | 78.41%
11 | 38.8 | 132 | 90 | CCOc1cc(N2CCC(N3CCN(CCc4c(C)ccc5c4n(C)c(=O)n5C4CCC(=O)NC4=O)CC3)CC2)c(CC)cc1Nc1ncc(Br)c(Nc2ccc3nc(CC)ccc3c2P(C)(C)=O)n1 (centres unmarked) [Example 461, 3-(4-(2-(4-(1-(4-((5-bromo-4-((5-(dimethylphosphoryl)-2-ethylquinolin-6-yl)amino)pyrimidin-2-yl)amino)-5-ethoxy-2-ethylphenyl)piperidin-4-yl)piperazin-1-yl)ethyl)-3,5-dimethyl-2-oxo-2,3-dihydro-1H-benzo[d]imidazol-1-yl)piperidine-2,6-dione] | 75.83%
